In ChEMBL document CHEMBL1201862, “PubChem BioAssay data set” (2004):
Activity calls are given as the source filed them.

Assays:
[1] = NIH-3T3 fibroblast cytotoxicity, dose response, cytotoxicity control, cell-based, fluorescence, Alamar Blue, secondary assay (AID 2327); type: functional;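 note: NIH-3T3 mouse fibroblasts cultured with fluconazole at 8 µg/mL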
[2] = C. albicans growth with fluconazole, confirmation, fluorescence, retest (AID 2467); type: functional, cell-based
[3] = molecular target: T1, Serine/threonine-protein phosphatase (Candida dubliniensis (strain CD36 / CBS 7987 / NCPF 3949 / NRRLY-17841) (Yeast), UniProt B9W6M3); experiment: calcineurin pathway inhibitors in yeast reporter, dose response, S. cerevisiae, CDRE-lacZ, luminescence, secondary (AID 2388); type: functional, cell-based;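 note: yeast reporter cells carrying a calcineurin-responsive lacZ construct stimulated with calcium chloride; luminescent beta-galactosidase reporter signal in whole cells rather than isolated phosphatase activity; potency for inhibition where a drop in reporter signal means calcineurin blockade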
T1 sequence (B9W6M3 whole entry): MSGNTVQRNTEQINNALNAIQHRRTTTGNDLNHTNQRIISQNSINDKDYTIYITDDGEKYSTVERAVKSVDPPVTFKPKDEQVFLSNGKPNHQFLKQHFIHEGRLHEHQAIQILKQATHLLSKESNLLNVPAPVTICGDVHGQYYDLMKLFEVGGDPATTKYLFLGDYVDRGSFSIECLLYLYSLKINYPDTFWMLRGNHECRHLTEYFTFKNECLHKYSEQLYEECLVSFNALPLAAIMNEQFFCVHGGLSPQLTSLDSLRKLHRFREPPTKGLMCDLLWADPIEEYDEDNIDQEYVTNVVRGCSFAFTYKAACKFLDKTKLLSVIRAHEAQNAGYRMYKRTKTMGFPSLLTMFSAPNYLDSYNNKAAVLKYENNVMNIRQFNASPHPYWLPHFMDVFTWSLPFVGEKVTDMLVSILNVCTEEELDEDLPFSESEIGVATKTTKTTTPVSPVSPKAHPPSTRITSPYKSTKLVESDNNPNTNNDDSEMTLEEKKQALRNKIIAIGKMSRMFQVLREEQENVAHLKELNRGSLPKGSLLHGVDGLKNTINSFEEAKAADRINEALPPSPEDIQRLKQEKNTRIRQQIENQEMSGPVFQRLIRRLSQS

[4] = Luminescence Cell-Based Dose Retest to Confirm Inhibitors of Cancer Stem Cells. [Related pubchem assays (depositor defined):AID2717, AID2721]; type: functional; conditions: Homo sapiens
[5] = molecular target: ATP-dependent molecular chaperone HSP82 (Candida albicans (strain WO-1) (Yeast), UniProt C4YTQ8); experiment: loss of DOC-induced GRE-beta-galactosidase reporter signal, dose response, Hsp90 inhibitor project, S. cerevisiae, luminescence (AID 2400); type: functional, cell-based;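 note: beta-galactosidase luminescence from glucocorticoid response element reporter as proxy for Hsp90 function; inhibitor potency where signal loss means Hsp90 inhibition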
ATP-dependent molecular chaperone HSP82, sequence (C4YTQ8 whole entry): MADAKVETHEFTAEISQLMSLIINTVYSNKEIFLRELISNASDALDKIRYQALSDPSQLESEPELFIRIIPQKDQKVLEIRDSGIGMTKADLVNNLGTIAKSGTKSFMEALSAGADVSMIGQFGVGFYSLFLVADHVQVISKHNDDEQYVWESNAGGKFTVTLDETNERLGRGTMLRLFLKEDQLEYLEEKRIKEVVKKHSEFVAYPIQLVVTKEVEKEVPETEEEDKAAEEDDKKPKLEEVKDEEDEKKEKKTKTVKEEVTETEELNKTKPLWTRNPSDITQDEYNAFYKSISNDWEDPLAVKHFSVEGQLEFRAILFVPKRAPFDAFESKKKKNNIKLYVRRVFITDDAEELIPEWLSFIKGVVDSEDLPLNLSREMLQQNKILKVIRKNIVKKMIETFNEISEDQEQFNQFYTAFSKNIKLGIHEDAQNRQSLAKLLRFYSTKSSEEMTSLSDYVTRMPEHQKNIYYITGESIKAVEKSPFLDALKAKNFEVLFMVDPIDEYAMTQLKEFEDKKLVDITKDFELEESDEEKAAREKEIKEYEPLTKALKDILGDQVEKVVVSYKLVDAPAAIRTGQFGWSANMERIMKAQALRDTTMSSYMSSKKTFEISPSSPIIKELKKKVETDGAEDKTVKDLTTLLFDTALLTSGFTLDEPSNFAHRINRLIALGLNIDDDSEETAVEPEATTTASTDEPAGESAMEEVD

Escherichia coli = experiment: microbe, parasite or virus in culture
[6] = molecular target: FAD-linked sulfhydryl oxidase ALR (Homo sapiens, UniProt P55789); experiment: inhibitors of human ALR sulfhydryl oxidase, dose response, biochemical, H2O2 detection, luminescence, cherry-pick (AID 493248)
FAD-linked sulfhydryl oxidase ALR, sequence (P55789 whole entry): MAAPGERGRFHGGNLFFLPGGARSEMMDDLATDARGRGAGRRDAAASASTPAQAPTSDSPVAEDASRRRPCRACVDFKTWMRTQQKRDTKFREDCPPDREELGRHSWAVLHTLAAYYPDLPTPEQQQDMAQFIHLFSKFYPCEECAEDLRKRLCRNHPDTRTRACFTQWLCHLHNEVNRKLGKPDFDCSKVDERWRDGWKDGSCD

HeLa = experiment: HeLa cell cytotoxicity, dose response, cytotoxicity control for MITF activator project, CellTiter-Glo luminescence, cherry-pick samples (AID 540259); type: functional, cell-based; conditions: Homo sapiens
[7] = growth suppression of PTEN-null colon cells, dose response, cell-based, HCT116 PTEN knockout (AID 1047); type: functional;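 note: HCT116 colon tumor cells with PTEN knocked out; cells exposed to compound for 60 hours before readout; potency for loss of cell viability measured by luminescence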
[8] = growth suppression of beta-catenin-knockout colon cells, dose response, cell-based, HCT116, human colon tumor (AID 1045); type: functional;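 note: HCT116 colon tumor cells with beta catenin knocked out; cells exposed to compound for 60 hours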
[9] = molecular target: T2, Microphthalmia-associated transcription factor (Homo sapiens, UniProt O75030); experiment: TRPM1 promoter luciferase signal decrease, dose response, MITF inhibitor project, cell-based, SK-MEL-5, cherry-picked, set 3 (AID 493073); type: functional
T2 sequence (O75030 whole entry): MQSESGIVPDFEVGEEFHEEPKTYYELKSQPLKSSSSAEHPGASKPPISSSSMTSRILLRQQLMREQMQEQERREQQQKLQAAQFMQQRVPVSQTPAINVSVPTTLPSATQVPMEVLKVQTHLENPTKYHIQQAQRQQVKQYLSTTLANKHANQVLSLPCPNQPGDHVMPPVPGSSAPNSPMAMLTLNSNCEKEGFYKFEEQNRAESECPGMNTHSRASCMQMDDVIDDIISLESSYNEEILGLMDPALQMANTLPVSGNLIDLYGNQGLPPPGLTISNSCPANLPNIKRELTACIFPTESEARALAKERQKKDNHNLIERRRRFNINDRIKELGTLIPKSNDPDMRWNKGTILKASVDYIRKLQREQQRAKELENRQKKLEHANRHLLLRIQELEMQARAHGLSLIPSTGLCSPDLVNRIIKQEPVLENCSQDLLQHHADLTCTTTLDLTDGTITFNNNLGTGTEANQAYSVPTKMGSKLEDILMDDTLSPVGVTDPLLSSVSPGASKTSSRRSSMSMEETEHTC

[10] = cytotoxicity in HPDE-C7 cells, cell-based, fluorescence, HTS (AID 430); type: functional; conditions: Homo sapiens
[11] = inhibitors of intracellular T. cruzi replication, confirmation, NIH3T3 host cells, beta-gal luminescence (AID 2044); type: functional, cell-based;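 note: intracellular parasites grown in NIH/3T3 mouse fibroblasts as host cells; luminescent beta-galactosidase reporter signal from transgenic T. cruzi replicating inside host cells; inhibitors lower the luminescence signal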
[12] = cytotoxicity in KRAS-transformed pancreatic duct cells, primary screen, cell-based, fluorescence, HTS (AID 431); type: functional; conditions: Homo sapiens;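 note: cell line used: HPDE-C7K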
[13] = cytotoxicity toward NIH3T3 fibroblasts, dose response, counter-screen, cell-based, ATP luminescence, mouse fibroblasts (AID 2010); type: functional;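 note: cells exposed to compound for about 90 hours before reading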
Vero = Vero cell cytotoxicity, cytotoxicity control for flavivirus capping enzyme inhibitors (AID 588742); type: functional; conditions: Chlorocebus sabaeus
[14] = molecular target: Dual specificity tyrosine-phosphorylation-regulated kinase 1A (Rattus norvegicus, UniProt Q63470); type: biochemical, Homo sapiens
Mu-type opioid receptor = Mu-type opioid receptor (Homo sapiens, UniProt P35372); type: functional, cell-based;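 note: U2OS cells with beta-arrestin recruitment to OPRM1 by beta-gal complementation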
Mu-type opioid receptor, sequence (P35372 whole entry): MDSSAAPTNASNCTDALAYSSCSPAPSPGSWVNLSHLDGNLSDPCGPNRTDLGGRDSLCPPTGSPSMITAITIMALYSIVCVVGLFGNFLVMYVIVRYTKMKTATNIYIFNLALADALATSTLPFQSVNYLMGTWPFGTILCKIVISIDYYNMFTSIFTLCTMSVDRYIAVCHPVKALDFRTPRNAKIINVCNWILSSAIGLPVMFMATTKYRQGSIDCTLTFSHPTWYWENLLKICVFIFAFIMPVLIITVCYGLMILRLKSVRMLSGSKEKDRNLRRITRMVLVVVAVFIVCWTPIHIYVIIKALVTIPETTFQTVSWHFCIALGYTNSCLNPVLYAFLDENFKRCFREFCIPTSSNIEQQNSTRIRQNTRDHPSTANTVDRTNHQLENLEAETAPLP

[15] = molecular target: 5-hydroxytryptamine receptor 2A (Mus musculus, UniProt P35363); type: functional, cell-based;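 note: CHO-K1 cells with tagged receptor and beta-arrestin; agonist potency measured as compound-induced activation of the receptor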
5-hydroxytryptamine receptor 2A, sequence (P35363 whole entry): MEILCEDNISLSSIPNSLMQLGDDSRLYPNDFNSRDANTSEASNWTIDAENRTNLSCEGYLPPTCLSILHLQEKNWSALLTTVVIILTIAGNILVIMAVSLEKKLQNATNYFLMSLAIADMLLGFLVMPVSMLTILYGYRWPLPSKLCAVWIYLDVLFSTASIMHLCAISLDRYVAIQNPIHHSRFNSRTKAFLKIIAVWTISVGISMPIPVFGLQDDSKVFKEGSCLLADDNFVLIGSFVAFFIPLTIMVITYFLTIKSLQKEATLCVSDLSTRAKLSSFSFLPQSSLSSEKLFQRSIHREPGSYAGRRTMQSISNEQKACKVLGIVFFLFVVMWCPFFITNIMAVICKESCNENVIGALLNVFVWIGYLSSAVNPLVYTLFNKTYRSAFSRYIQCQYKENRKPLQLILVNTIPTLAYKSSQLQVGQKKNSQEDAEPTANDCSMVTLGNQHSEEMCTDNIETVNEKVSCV

Aminopeptidase N = molecular target: T3, Aminopeptidase N (Plasmodium falciparum FcB1/Columbia, UniProt O96935); experiment: P. falciparum M1AAP inhibitors, biochemical, fluorogenic H-Leu-NHMec substrate, 1536-well (AID 1445); set-up: species or system Plasmodium falciparum 3D7, 3D7
T3 sequence (O96935 whole entry): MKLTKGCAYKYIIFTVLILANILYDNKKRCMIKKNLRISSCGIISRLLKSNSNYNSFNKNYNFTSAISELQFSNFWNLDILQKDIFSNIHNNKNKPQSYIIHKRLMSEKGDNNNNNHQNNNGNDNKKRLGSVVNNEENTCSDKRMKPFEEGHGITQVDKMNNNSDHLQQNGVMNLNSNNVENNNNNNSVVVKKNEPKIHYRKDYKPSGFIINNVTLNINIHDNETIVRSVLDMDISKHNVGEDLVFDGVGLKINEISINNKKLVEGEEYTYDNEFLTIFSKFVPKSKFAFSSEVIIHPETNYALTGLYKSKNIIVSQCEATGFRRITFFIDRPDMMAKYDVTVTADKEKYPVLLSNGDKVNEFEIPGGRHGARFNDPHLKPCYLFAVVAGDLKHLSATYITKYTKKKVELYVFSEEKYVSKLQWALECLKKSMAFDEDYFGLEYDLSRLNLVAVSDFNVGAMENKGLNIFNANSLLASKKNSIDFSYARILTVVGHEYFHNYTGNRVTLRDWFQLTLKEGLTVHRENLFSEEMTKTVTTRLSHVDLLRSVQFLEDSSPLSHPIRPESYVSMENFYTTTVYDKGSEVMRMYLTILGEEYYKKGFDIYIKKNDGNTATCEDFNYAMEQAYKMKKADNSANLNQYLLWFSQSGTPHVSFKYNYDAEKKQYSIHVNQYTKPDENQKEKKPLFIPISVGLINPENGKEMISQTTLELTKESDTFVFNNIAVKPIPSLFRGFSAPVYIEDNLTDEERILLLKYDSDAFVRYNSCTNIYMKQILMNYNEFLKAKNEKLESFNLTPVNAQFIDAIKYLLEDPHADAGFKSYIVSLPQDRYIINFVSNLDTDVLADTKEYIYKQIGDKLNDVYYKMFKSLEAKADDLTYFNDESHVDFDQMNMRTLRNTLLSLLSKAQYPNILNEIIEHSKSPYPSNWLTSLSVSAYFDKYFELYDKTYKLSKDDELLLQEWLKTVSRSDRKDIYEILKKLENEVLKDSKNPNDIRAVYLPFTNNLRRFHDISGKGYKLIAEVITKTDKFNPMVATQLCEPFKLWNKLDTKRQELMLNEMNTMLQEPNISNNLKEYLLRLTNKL

For `O=[N+]([O-])c1cccc(-c2cc(-c3cc(Br)ccc3O)n[nH]2)c1`, the EC50 [1] was 19 µM (inconclusive), the EC50 [2] was 0.954 µM (active) and the EC50 [3] was > 180 µM (inactive). The AC50 [4] was 2.03 µM (active) and the EC50 [5] was 11.9 µM (active).

For `Oc1c(Br)cc(C2NC(c3ccccc3)=NO2)cc1Br` (stereo not drawn), the AC50 (Escherichia coli) was 20.2 µM (active).

In the case of `Nc1ccc2oc(-c3cccs3)nc2c1`, the AC50 [6] is reported as 0.155 µM (active) and the AC50 (HeLa) is reported as 168 µM (active).

For `CCOc1ccc2nc(C)cc(Nc3cccc([N+](=O)[O-])c3)c2c1`, the EC50 [7] was 5.88 µM (active), the EC50 [8] was 7.34 µM (active) and the AC50 [9] was 17.8 µM (active).

With `CN1CCc2c(C#N)c(N3CCCCC3)nc(NCc3ccccc3)c2C1` the EC50 [10] was 16.8 µM (active), the EC50 [11] was 0.639 µM (active) and the EC50 [12] was 2.44 µM (active). The EC50 [7] was 17.8 µM (active), the EC50 [13] was > 60 µM (not active) and the EC50 [8] was 13.5 µM (active). For the same compound, the CC50 (Vero) was > 40 µM (active).

With `COc1cc(/C=C2/C(=N)N3C(SC)=NSC3=NC2=O)ccc1OC(=O)c1ccco1` the AC50 [14] was 5.64 µM (active).

In the case of `CC(=O)c1cccc(OCC(O)CNCC2COc3ccccc3O2)c1` (stereo not drawn), the EC50 (Mu-type opioid receptor) is reported as 92.5 µM (inactive) and the EC50 [15] is reported as 2.85 µM (active).

With `NS(=O)(=O)c1ccc(CCNC(=O)Cc2ccc(S(=O)(=O)N3CCCC3)s2)cc1` the IC50 (Aminopeptidase N) was 8.91 µM (active) and the AC50 (Escherichia coli) was 39.6 µM (active).
